Assay results from patent US5985603A, “P2x receptor DNA and protein sequence” (Glaxo Group Limited, priority 1994, dated 1999).

What was measured:
P2X mRNA = details: rat, RP2 mRNA; cited from earlier work
PC12 P2X receptor = molecular target: T1, PC12 P2X receptor (Rattus norvegicus, UniProt P49653); test: functional properties of cloned P2X receptors (electrical recordings): PC12; assay type: cell-based
T1 construct: host or cells: HEK293 cells (oocytes are also named for the functional characterisation of clone 3)
T1 sequence (P49653 1-472): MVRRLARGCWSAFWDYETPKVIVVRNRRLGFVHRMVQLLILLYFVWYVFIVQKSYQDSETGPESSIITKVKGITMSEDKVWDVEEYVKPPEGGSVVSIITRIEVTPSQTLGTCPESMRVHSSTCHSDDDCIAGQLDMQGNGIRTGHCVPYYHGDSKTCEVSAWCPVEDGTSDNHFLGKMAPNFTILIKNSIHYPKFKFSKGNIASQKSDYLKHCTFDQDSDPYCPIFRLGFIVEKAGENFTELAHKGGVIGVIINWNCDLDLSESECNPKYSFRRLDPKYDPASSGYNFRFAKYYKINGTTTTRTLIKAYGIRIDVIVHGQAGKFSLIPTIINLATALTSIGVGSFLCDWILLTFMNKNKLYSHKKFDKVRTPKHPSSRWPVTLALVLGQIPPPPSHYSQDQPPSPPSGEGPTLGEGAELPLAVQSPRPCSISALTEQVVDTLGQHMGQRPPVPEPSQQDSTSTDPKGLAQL
Method: (§1) HEK 293 cells were transfected by the lipofectin method (Felgner et al., Proc. Nat'l. Acad. Sci. USA 84 7413-7417 (1987)) with P2X -plasmid. DNA concentration used was 1 mg/2 ml medium placed into a 35 mm petri dish containing four 11 mm diameter coverslips on which HEK cells were placed at 10,000 cells per coverslip. […] Currents were recorded from HEK 293 cells using whole-cell recording methods and the AXOPATCH™ 200 amplifier (Axon Instruments); patch pipettes (5 M.OMEGA.) contained (mM) Cs or K aspartate 140, NaCl 5, EGTA 11, HEPES 5. The external solution was (mM) NaCl 150, KCl2, CaCl2 2, MgCl2 1, HEPES 5 and glucose 11; the pH and osmolarity of both solutions were maintained at 7.3 and 305 mosmol/l respectively. All recordings performed at room temperature. Data acquisition and analysis were performed using pCLAMP™ and AXOGRAPH™ software (Axon Instruments). […] The pH and osmolarity of the solutions were 7.4 and 295 mosmol/l respectively. For single channel measurements, a […]™ 500 amplifier and outside-out recording methods were used (Adelman et al., Neuron 9 209-216 (1992)). Wax-coated patch pipettes (5-10 M.OMEGA.) contained (mM) K-gluconate 115, HEPES 5, BAPTA 5 and MgCl2 0.5, external solution was 96 mM NaCl, 2 mM KCl, 1.8 mM CaCl2, 1 mM MgCl2, 5 mM Hepes pH 7.6, and 5 mM sodium pyruvate.
(§2) The functional characterisation of the clone illustrated in FIG. 2 (referred to herein as clone 3) was carried out by electrical recordings from transfected HEK293 cells and from oocytes injected with the in vitro transcribed RNA, as described in Example 4 for the rat vas deferens P2X receptor. Table A summarizes the main properties of clone 3 as compared to those of rat vas/human bladder cDNA clone, and the PC12 cDNA clone (provided by David Julius and Tony Brake of the University of California at San Francisco).

[1] = molecular target: T2, rat superior cervical ganglion P2X receptor (clone 3) (Rattus norvegicus, UniProt P51577); test: functional properties of cloned P2X receptors (electrical recordings): clone 3; assay type: cell-based
T2 construct: The insert appeared to be a full length cDNA; expressed in transfected cells; host or cells: HEK293 cells transfected with pcDNA3 construct p464 (also oocytes injected with in vitro transcribed RNA)
T2 sequence (P51577 1-388): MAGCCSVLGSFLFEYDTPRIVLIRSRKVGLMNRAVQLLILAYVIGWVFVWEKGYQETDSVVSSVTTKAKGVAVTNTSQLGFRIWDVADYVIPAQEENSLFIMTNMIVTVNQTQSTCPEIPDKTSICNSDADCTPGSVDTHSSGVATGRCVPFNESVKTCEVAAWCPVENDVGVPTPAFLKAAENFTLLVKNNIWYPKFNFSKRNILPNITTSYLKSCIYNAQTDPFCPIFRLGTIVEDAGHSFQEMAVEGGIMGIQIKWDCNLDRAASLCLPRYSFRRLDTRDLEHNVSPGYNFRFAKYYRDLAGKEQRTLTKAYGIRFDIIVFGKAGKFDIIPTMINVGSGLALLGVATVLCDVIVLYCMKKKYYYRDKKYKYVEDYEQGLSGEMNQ
Method: as §1, §2

mouse vas deferens = details: cited from earlier work
P2-purinoceptor = details: reported previously for suramin; cited from earlier work
[2] = molecular target: T3, rat vas deferens P2X receptor (Rattus norvegicus, UniProt P47824); test: radioligand binding in CHO cells stably transfected with rat vas deferens P2X receptor
T3 construct: cRNA in Xenopus oocytes; stably transfected CHO cells
T3 sequence (P47824 1-399): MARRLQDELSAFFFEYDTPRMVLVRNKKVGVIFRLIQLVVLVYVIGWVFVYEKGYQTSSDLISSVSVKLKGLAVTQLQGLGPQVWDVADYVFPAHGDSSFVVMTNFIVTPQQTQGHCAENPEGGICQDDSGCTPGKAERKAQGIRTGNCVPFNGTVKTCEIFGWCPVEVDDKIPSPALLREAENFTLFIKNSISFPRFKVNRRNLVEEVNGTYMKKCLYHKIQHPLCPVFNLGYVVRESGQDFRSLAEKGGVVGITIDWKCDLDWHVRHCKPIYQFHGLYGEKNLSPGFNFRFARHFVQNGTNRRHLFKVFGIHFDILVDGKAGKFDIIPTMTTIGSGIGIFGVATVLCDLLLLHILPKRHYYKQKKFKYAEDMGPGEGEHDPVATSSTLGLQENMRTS
Source text: CHO cells were stably transfected by a method used for other ion channels (Claudio, Meth. Enzymol. 207 391-408 (1992)). Transfection was confirmed by a) electro-physiological recording and b) radioligand binding. […] [^3 H]αβmethyleneATP binding was more than 600 cpm per million transfected cells with less than 80 cpm nonspecific binding.

Compound: C[C@@H]1C[C@H]2[C@@H]3CCC4=CC(=O)C=C[C@]4(C)[C@@]3(F)[C@@H](O)C[C@]2(C)[C@@]1(O)C(=O)CO [dexamethasone]
- induction of P2X mRNA in immature thymocytes (P2X mRNA): can be induced in immature thymocytes by dexamethasone

Compound: Cc1ccc(C(=O)Nc2ccc(S(=O)(=O)O)c3cc(S(=O)(=O)O)cc(S(=O)(=O)O)c23)cc1NC(=O)c1cccc(NC(=O)Nc2cccc(C(=O)Nc3cc(C(=O)Nc4ccc(S(=O)(=O)O)c5cc(S(=O)(=O)O)cc(S(=O)(=O)O)c45)ccc3C)c2)c1 [suramin]
- IC50 (PC12 P2X receptor): 6 µM
- antagonist profile, clone 3 (block) ([1]; Table A, concentration not given): < 40%
- sensitivity of ATP-activated currents to antagonism, compared with rat vas deferens/human bladder and PC12 forms ([1]; clone 3 (FIG. 15)): much less sensitive to antagonism
- pKB (mouse vas deferens): 5.2
- pA2 (P2-purinoceptor): 5.9

Compound: [^3 H]αβmethyleneATP
- binding [2]: more than 600 cpm per million transfected cells
- nonspecific binding [2]: less than 80 cpm
